According to patent US8088791B2, “Antibacterial agents” (Biots Scientific Management Pty Ltd, priority 2006, dated 2012):
≈ marks a conversion by molar mass, not a printed value. Read-outs that look alike come from different tables or passages of the source.

How the values were obtained:
Bacillus subtilis 168CA = assay: Minimum Inhibitory Concentration (MIC) testing, broth microdilution, Bacillus subtilis; assay type: cell-based; conditions: for MIC: read-out: Bacillus subtilis MICs Activity
Protocol: (§1) Compounds of this invention were tested for antimicrobial activity by susceptibility testing in liquid media. MICs for compounds against each strain were determined by a broth microdilution method according to the National Committee for Clinical Laboratory Standards (NCCLS) guidelines. (NCCLS. 2000. Methods for dilution antimicrobial susceptibility tests for bacteria that grow aerobically—fifth edition. Approved standard M7-A5. NCCLS, Wayne, Pa.)
(§2) Briefly, test compounds are prepared in 100 μl of 1.6% DMSO solution in multiwell plates. Several bacterial colonies from a freshly streaked plate are transferred to an appropriate rich broth, such as Mueller Hinton. The cell suspension is adjusted to an optical density of 0.09 and further diluted 1:100 with warm 2× broth. This cell suspension is dispensed into the wells containing compound solution so that the final volume is 200 μl. The plates are incubated overnight (16-20 hours) at 37° C. and turbidity is scored by eye and quantified spectrophotometrically. The MIC is defined as the lowest concentration inhibiting visible growth.
Activities were scored as ‘A’ if the MIC was ≦8 micrograms/ml, ‘B’ if the MIC was 16 to 64 micrograms/ml and ‘C’ if the MIC was greater than 64 micrograms/ml.

[1] = tested on: Staphylococcus aureus ATCC29213; assay: Minimum Inhibitory Concentration (MIC) testing, broth microdilution, Staphylococcus aureus; assay type: cell-based
Protocol: as §1, §2
Some of the compounds of the Examples were also tested for activity against the pathogenic organism Staphylococcus aureus ATCC29213. […] Activities were again scored as ‘A’ if the MIC was ≦8 micrograms/ml, ‘B’ if the MIC was 16 to 64 micrograms/ml and ‘C’ if the MIC was greater than 64 micrograms/ml.

[2] = Staphylococcus aureus ATCC29213, read-out: Staphylococcus aureus MICs Activity

Molecule	MIC (Bacillus subtilis 168CA; Bacillus subtilis 168CA) [µg/mL]	MIC [1, 2] [µg/mL]	further results
NC(=O)c1c(F)ccc(OCc2nc3cc(Cl)ccc3o2)c1F [Example 210, 3-[(5-Chloro-1,3-benzoxazol-2-yl)methoxy]-2,6-difluorobenzenecarboxamide]	< 8	< 8	
NC(=O)c1c(F)ccc(OCc2cccs2)c1F [Example 186, 2,6-Difluoro-3-(2-thienylmethoxy)benzenecarboxamide]	< 8	16 to 64 (≈ 59.4 to 238 µM)	
COC(=O)c1ccc2nc(COc3ccc(F)c(C(N)=O)c3F)sc2c1 [Example 321, 2-(3-Carbamoyl-2,4-difluoro-phenoxymethyl)-benzothiazole-6-carboxylic acid methyl ester]	< 8	< 8	
COc1ccc(-c2nc(COc3ccc(F)c(C(N)=O)c3F)sc2-c2cncs2)cc1 [Example 164, 2,6-Difluoro-3-[4-(4-methoxy-phenyl)-[5,5′]bithiazolyl-2-ylmethoxy]-benzamide]			MIC (Bacillus subtilis 168CA; Bacillus subtilis, 168CA): < 8 µg/mL; MIC ([1]; Staphylococcus aureus, ATCC29213, read-out: Staphylococcus aureus MICs Activity): < 8 µg/mL
NC(=O)c1c(F)ccc(OCc2nc3cc([N+](=O)[O-])ccc3o2)c1F [Example 214, 2,6-Difluoro-3-[(5-nitro-1,3-benzoxazol-2-yl)methoxy]benzenecarboxamide]	16 to 64 (≈ 45.8 to 183 µM)	16 to 64 (≈ 45.8 to 183 µM)	
NC(=O)c1cc(OCc2nc(-c3ccc(Cl)cc3)no2)ccc1F [Example 268, 5-[3-(4-Chloro-phenyl)-[1,2,4]oxadiazol-5-ylmethoxy]-2-fluoro-benzamide]	< 8	16 to 64 (≈ 46 to 184 µM)	
CC/C=C\CC/C=C/COc1cccc(C(N)=O)c1 [Example 56, 3-[(2E,6Z)-2,6-Nonadienyloxy]benzenecarboxamide]	< 8	< 8	
CCCC/C=C/CCOc1cccc(C(N)=O)c1 [Example 40, 3-[(E)-3-Octenyloxy]benzenecarboxamide]	< 8	< 8	
NC(=O)c1c(F)ccc(OCc2ccco2)c1F [Example 183, 2,6-Difluoro-3-(2-furylmethoxy)benzenecarboxamide]	16 to 64 (≈ 63.2 to 253 µM)	16 to 64 (≈ 63.2 to 253 µM)	
COc1ccc(-c2nc(COc3ccc(F)c(C(N)=O)c3F)sc2Br)cc1 [Example 158, 3-[5-Bromo-4-(4-methoxy-phenyl)-thiazol-2-ylmethoxy]-2,6-difluoro-benzamide]	< 8	< 8	
3-Pentyl-2,3-dihydro-1,4-benzodioxine-6-carboxamide and 2-pentyl-2,3-dihydro-1,4-benzodioxine-6-carboxamide [Example 95]			Bacillus subtilis MICs Activity (Bacillus subtilis 168CA; Bacillus subtilis 168CA): B (‘B’ if the MIC was 16 to 64 micrograms/ml); Staphylococcus aureus MICs Activity ([1]; Staphylococcus aureus ATCC29213): C (‘C’ if the MIC was greater than 64 micrograms/ml)
NC(=O)c1c(F)ccc(OCc2cc3ccccc3s2)c1F [Example 206, 3-(1-Benzothiophen-2-ylmethoxy)-2,6-difluorobenzenecarboxamide]	< 8	> 64	
Cc1cccc(COc2ccc(F)c(C(N)=O)c2F)c1 [Example 195, 2,6-Difluoro-3-[(3-methylbenzyl)oxy]benzenecarboxamide]	< 8	16 to 64 (≈ 57.7 to 231 µM)	
NC(=O)c1c(F)ccc(OCc2nc(-c3ccc(Cl)cc3)cs2)c1Cl [Example 274, 2-Chloro-3-[4-(4-chloro-phenyl)-thiazol-2-ylmethoxy]-6-fluoro-benzamide]	< 8	< 8	
NC(=O)c1c(F)ccc(OCc2nc(-c3cccs3)no2)c1F [Example 153, 2,6-Difluoro-3-(3-thiophen-2-yl-[1,2,4]oxadiazol-5-ylmethoxy)-benzamide]	< 8	< 8	
CCOc1cccc(COc2ccc(F)c(C(N)=O)c2F)c1 [Example 196, 3-[(3-Ethoxybenzyl)oxy]-2,6-difluorobenzenecarboxamide]	< 8	16 to 64 (≈ 52.1 to 208 µM)	
Cc1cccc(COc2cccc(C(N)=O)c2)c1 [Example 29, 3-[(3-Methylbenzyl)oxy]benzenecarboxamide]	16 to 64 (≈ 66.3 to 265 µM)	16 to 64 (≈ 66.3 to 265 µM)	
COc1cccc(-c2ccc3sc(COc4ccc(F)c(C(N)=O)c4F)nc3c2)c1 [Example 143, 2,6-Difluoro-3-[5-(3-methoxy-phenyl)-benzothiazol-2-ylmethoxy]-benzamide]	> 64	< 8	
CCCCCC/C=C/COc1cccc(C(N)=O)c1 [Example 49, 3-[(E)-2-Nonenyloxy]benzenecarboxamide]	< 8	< 8	
CC(C)(C)c1ccc(-c2noc(COc3ccc(F)c(C(N)=O)c3F)n2)cc1 [Example 249, 3-(3-[4-(tert-Butyl)phenyl]-1,2,4-oxadiazol-5-ylmethoxy)-2,6-difluorobenzenecarboxamide]	< 8	< 8	
NC(=O)c1c(F)ccc(OCC2COc3ccccc3O2)c1F (centres unmarked) [Example 204, 3-(2,3-Dihydro-1,4-benzodioxin-2-ylmethoxy)-2,6-difluorobenzenecarboxamide]	16 to 64 (≈ 49.8 to 199 µM)	16 to 64 (≈ 49.8 to 199 µM)	

Molecule	MIC (Bacillus subtilis 168CA; Bacillus subtilis 168CA) [µg/mL]	MIC [1, 2] [µg/mL]	further results
NC(=O)c1c(F)ccc(OCc2noc(-c3ccsc3)n2)c1F [Example 150, 2,6-Difluoro-3-(5-thiophen-3-yl-[1,2,4]oxadiazol-3-ylmethoxy)-benzamide]	< 8	16 to 64 (≈ 47.4 to 190 µM)	
NC(=O)c1c(F)ccc(OCc2nc3cc(-c4ccc(O)cc4)ccc3s2)c1F [Example 140, 2,6-Difluoro-3-[5-(4-hydroxy-phenyl)-benzothiazol-2-ylmethoxy]-benzamide]	> 64	< 8	
NC(=O)c1c(F)ccc(OCc2nc(-c3ccccc3)co2)c1F [Example 310, 2,6-Difluoro-3-(4-phenyl-oxazol-2-ylmethoxy)-benzamide]	< 8	16 to 64 (≈ 48.4 to 194 µM)	
NC(=O)c1c(F)ccc(OCc2cccc(OC(F)(F)F)c2)c1F [Example 107, 2,6-Difluoro-3-(3-trifluoromethoxybenzyloxy)benzamide]	< 8	< 8	
CCCCCCCCCCOc1ccc(F)c(C(N)=O)c1 [Example 71, 2-Fluoro-5-(decyloxy)benzenecarboxamide]	< 8	< 8	
NC(=O)c1c(F)ccc(OCc2csc3ccccc23)c1F [Example 202, 3-(1-Benzothiophen-3-ylmethoxy)-2,6-difluorobenzenecarboxamide]	< 8	16 to 64 (≈ 50.1 to 200 µM)	
NC(=O)c1c(F)ccc(OCc2nc(-c3ccc(OC(F)(F)F)cc3)no2)c1F [Example 292]	< 8	< 8	
C#CCCCCCCCCCOc1ccc(F)c(C(N)=O)c1 [Example 75, 2-Fluoro-5-(10-undecynyloxy)benzenecarboxamide]	< 8	< 8	
NC(=O)c1c(Cl)ccc(OCc2nc(-c3ccc(Cl)cc3)cs2)c1F [Example 273, 6-Chloro-3-[4-(4-chloro-phenyl)-thiazol-2-ylmethoxy]-2-fluoro-benzamide]	< 8	< 8	
CCCCCOc1cccc(C(N)=O)c1 [Example 5, 3-(Pentyloxy)benzenecarboxamide]	16 to 64 (≈ 77.2 to 309 µM)	16 to 64 (≈ 77.2 to 309 µM)	
CCCC/C=C/CCCCOc1cccc(C(N)=O)c1 [Example 58, 3-[(E)-5-Decenyloxy]benzenecarboxamide]	< 8	< 8	
NC(=O)c1c(F)ccc(OCc2coc(-c3ccccc3)n2)c1F [Example 132, 2,6-Difluoro-3-(2-phenyl-oxazol-4-ylmethoxy)-benzamide]	< 8	< 8	
Cc1cccc(COc2ccc(F)c(C(N)=O)c2F)n1 [Example 197, 2,6-Difluoro-3-[(6-methyl-2-pyridinyl)methoxy]benzenecarboxamide]	16 to 64 (≈ 57.5 to 230 µM)	16 to 64 (≈ 57.5 to 230 µM)	
COc1ccc(-c2nc(COc3ccc(F)c(C(N)=O)c3F)sc2C#N)cc1 [Example 289, 3-[5-Cyano-4-(4-methoxy-phenyl)-thiazol-2-ylmethoxy]-2,6-difluoro-benzamide]	< 8	< 8	
Cc1cnc(COc2ccc(F)c(C(N)=O)c2F)s1 [Example 192, 2,6-Difluoro-3-[(5-methyl-1,3-thiazol-2-yl)methoxy]benzenecarboxamide]	> 64	> 64	
NC(=O)c1c(F)ccc(OCc2nc(-c3ccccc3Cl)no2)c1F [Example 254, 3-[3-(2-Chlorophenyl)-1,2,4-oxadiazol-5-yl]methoxy-2,6-difluorobenzenecarboxamide]	< 8		
C=CCOc1cccc(C(N)=O)c1 [Example 6, 3-(Allyloxy)benzenecarboxamide]	> 64		
NC(=O)c1cccc(OCc2ccc3ccccc3n2)c1 [Example 23, 3-(2-Quinolinylmethoxy)benzenecarboxamide]	16 to 64 (≈ 57.5 to 230 µM)		
NC(=O)c1c(F)ccc(OCc2nc(-c3ccccc3O)no2)c1F [Example 253, 2,6-Difluoro-3-[3-(2-hydroxyphenyl)-1,2,4-oxadiazol-5-yl]methoxybenzenecarboxamide]	16 to 64 (≈ 46.1 to 184 µM)		
NC(=O)c1c(F)ccc(OCc2ccc3cc(Cl)ccc3n2)c1F [Example 110, 3-(6-Chloro-quinolin-2-ylmethoxy)-2,6-difluoro-benzamide]	< 8		
